Assay [1] concerns Alkaline phosphatase from bovine intestinal mucosa. In words: Alkaline phosphatase activation of prodrugs (31P NMR). In kind it is biochemical. To be noted: in vitro, FIG. 5. Here is the method: Alkaline phosphatase activation of prodrugs 3 and 19d. Alkaline phosphatase from bovine intestinal mucosa (Sigma-Aldrich, P5521-2KU) was dissolved in 2.0 mL of a 0.100 M sodium glycine buffer containing 1.0 mM ZnCl2 and 1.0 mM MgCl2. This stock solution was stored at 4° C. between uses.
Compound 19d (10.0 mg, 0.016 mmol) or compound 3 (8.7 mg, 0.016 mmol) were dissolved in 0.6 mL of a 0.100 M tris glycine buffer solution containing 1.0 mM ZnCl2 and 1.0 mM MgCl2. […] 50 μL of the previously prepared AP stock solution was further diluted by addition to 0.950 mL of a 0.100 M tris glycine buffer containing 1.0 mM ZnCl2 and 1.0 mM MgCl2. 10.0 μL of this diluted AP solution was added to the prodrug solution by syringe. A series of 42 inverse-gated decoupled ^31P NMR's were taken (24 scans each, approximately one minute acquisition time). Conversion (%) was determined from the relative integration of the starting material and product peaks, NMR time stamps were used to determine time. Each experiment was repeated three times.

Assay [2] has as its system Primary rat hepatocytes. Put plainly: Cell viability and apoptosis assays, TGF-β1-exposed hepatocytes. In kind it is cell-based. To be noted: 100 μM, with or without 3 U/ml alkaline phosphatase, TGF-β1 24 h. Here is the method:
Cell culture and treatments. Primary rat hepatocytes were isolated from male rats (100-150 g) by collagenase perfusion. Briefly, rats were anesthetized with phenobarbital sodium (100 mg/kg body weight) injected into the peritoneal cavity. After administration of heparin (200 units/kg body weight) in the tail vein, the animals' abdomen was opened and the portal vein exposed and cannulated. The liver was then perfused at 37° C. in situ with a calcium-free Hanks' Balanced Salt Solution (HBSS) for ˜10 min, and then with 0.05% collagenase type IV in calcium-present HBSS for another 10 min. […] Cell viability was determined by trypan blue exclusion and was typically 80-85%. […]
Cell viability assays. […] Finally, absorbance was measured at 490 nm, with 690 nm as reference, using a Bio-Rad model 680-microplate reader (Bio-Rad Laboratories, Hercules, Calif., USA).
To assess cellular viability, the CellTiter-Fluor™ viability assay was used (Promega Corp., Madison, Wis., USA). Briefly, viable cells are measured using a fluorogenic, cell-permeant, peptide substrate (Gly-Phe-AFC), which is cleaved by the live-cell protease activity to generate a fluorescent signal proportional to the number of living cells. Cells were incubated with an equal volume of CellTiter-Fluor™ Reagent for 30 min at 37° C. and resulting fluorescence (380-400 nmEx/505 nmEm) measured using a GloMax+ Multi Detection System (Promega Corp.). […]

As for `CC(CCC(=O)OCOP(=O)(O)O)C1CCC2C3C(O)CC4CC(O)CCC4(C)C3CCC12C` (centres unmarked) [Compound 19, ursodeoxycholic acid phosphonooxymethoxy ester], in assay [1], the “rate of alkaline phosphatase catalyzed release of UDCA” value is “faster than prodrug 3”. The “anti-apoptotic potency in in vitro assays” value in assay [2] is given as “highly active in these assays, but required activation by exogenous alkaline phosphatase”.

Values taken from patent US20210122780A1, “COMPOSITIONS FOR THE PREVENTION AND TREATMENT OF PARKINSON'S DISEASE” (Metselex, Inc., priority 2018, published 2021).
